Normal melting temperature data for 6 compounds are collected here from the NIST ThermoML archive (doi:10.1021/je900410j).

SMILES strings stand for the structures. Numbers after ± are expanded uncertainties.

The conditions of the data set: Crystal; DTA.

Consider `CCCCCCCC(=O)OCC(COC(=O)CCCCCCC)OC(=O)CCCCCCC` [1,2,3-propanetriol trioctanoate], for which the Normal melting temperature is 9.60 ± 0.53 °C.
For `CCCCCCCC/C=C\CCCCCCCC(=O)OCC(COC(=O)CCCCCCC/C=C\CCCCCCCC)OC(=O)CCCCCCC/C=C\CCCCCCCC` [1,2,3-tri(cis-9-octadecenoyl)glycerol] the value was 5.27 ± 0.53 °C; for `CCCCCCCCCCCCCCCC(=O)O` [hexadecanoic acid], 63.32 ± 0.53 °C; for `CCCCCCCCCCCCCCCCCC(=O)O` [octadecanoic acid], 70.23 ± 0.53 °C.
For `CCCCCCCCCCCCCC(=O)O` [tetradecanoic acid] the value was 55.41 ± 0.53 °C; for `CC/C=C\C/C=C\C/C=C\CCCCCCCC(=O)OCC(COC(=O)CCCCCCC/C=C\C/C=C\C/C=C\CC)OC(=O)CCCCCCC/C=C\C/C=C\C/C=C\CC` [trilinolenin], -22.0 ± 0.53 °C.
